Results reported in US9963445B2, “Chemical compounds” (SYNGENTA PARTICIPATIONS AG, priority 2013, dated 2018).

Legend:
Assay type in all cases: in vivo
[1] = tested on: Alopecurus myosuroides; assay: Pre-emergence herbicidal activity, glasshouse pot test; settings: pre-emergence spray, rate 1000 g/ha, evaluated after 13 days, scale 0-5
Experimental: (§1) Seeds of a variety of test species were sown in standard soil in pots. After cultivation for one day (pre-emergence) under controlled conditions in a glasshouse (at 24/16° C., day/night; 14 hours light; 65% humidity), the plants were sprayed with an aqueous spray solution derived from the formulation of the technical active ingredient in acetone/water (50:50) solution containing 0.5% Tween 20 (polyoxyethelyene sorbitan monolaurate, CAS RN 9005-64-5). The test plants were then grown in a glasshouse under controlled conditions (at 24/16° C., day/night; 14 hours light; 65% humidity) and watered twice daily. After 13 days, the test was evaluated (5=total damage to plant; 0=no damage to plant).
(§2) ABUTH=Abutilon theophrasti; SOLNI=Solanum nigrum; AMARE=Amaranthus retroflexus; SETFA=Setaria faberi; ALOMY=Alopecurus myosuroides; ECHCG=Echinochloa crus-galli, ZEAMX=zea mays.

[2] = tested on: zea mays; assay: as above; settings: pre-emergence spray, rate 1000 g/ha, evaluated after 13 days, scale 0-5
Experimental: as §1, §2

[3] = tested on: Echinochloa crus-galli; assay: as above; settings: pre-emergence spray, rate 1000 g/ha, evaluated after 13 days, scale 0-5
Experimental: as §1, §2

[4] = tested on: Setaria faberi; assay: as above; settings: pre-emergence spray, rate 1000 g/ha, evaluated after 13 days, scale 0-5
Experimental: as §1, §2

[5] = tested on: Abutilon theophrasti; assay: as above; settings: pre-emergence spray, rate 1000 g/ha, evaluated after 13 days, scale 0-5
Experimental: as §1, §2

[6] = tested on: Amaranthus retroflexus; assay: as above; settings: pre-emergence spray, rate 1000 g/ha, evaluated after 13 days, scale 0-5
Experimental: as §1, §2

[7] = tested on: Alopecurus myosuroides; assay: Post-emergence herbicidal activity, glasshouse pot test; design: key: 0 = no damage to plant, 5 = total damage to plant; settings: Application post-emergence, rate 1000 g/ha, evaluated after 13 days
Experimental: (§3) Seeds of a variety of test species were sown in standard soil in pots. After 8 days cultivation (post-emergence) under controlled conditions in a glasshouse (at 24/16° C., day/night; 14 hours light; 65% humidity), the plants were sprayed with an aqueous spray solution derived from the formulation of the technical active ingredient in acetone/water (50:50) solution containing 0.5% Tween 20 (polyoxyethelyene sorbitan monolaurate, CAS RN 9005-64-5). The test plants were then grown in a glasshouse under controlled conditions (at 24/16° C., day/night; 14 hours light; 65% humidity) and watered twice daily. After 13 days, the test was evaluated (5=total damage to plant; 0=no damage to plant).
as §2

[8] = tested on: zea mays; assay: as above; design: key: 0 = no damage to plant, 5 = total damage to plant; settings: Application post-emergence, rate 1000 g/ha, evaluated after 13 days
Experimental: as §3, §2

[9] = tested on: Amaranthus retroflexus; assay: as above; design: key: 0 = no damage to plant, 5 = total damage to plant; settings: Application post-emergence, rate 1000 g/ha, evaluated after 13 days
Experimental: as §3, §2

[10] = tested on: Echinochloa crus-galli; assay: as above; design: key: 0 = no damage to plant, 5 = total damage to plant; settings: Application post-emergence, rate 1000 g/ha, evaluated after 13 days
Experimental: as §3, §2

[11] = tested on: Setaria faberi; assay: as above; design: key: 0 = no damage to plant, 5 = total damage to plant; settings: Application post-emergence, rate 1000 g/ha, evaluated after 13 days
Experimental: as §3, §2

[12] = tested on: Abutilon theophrasti; assay: as above; design: key: 0 = no damage to plant, 5 = total damage to plant; settings: Application post-emergence, rate 1000 g/ha, evaluated after 13 days
Experimental: as §3, §2

| Compound | ALOMY damage score, application pre-emergence [1] | ZEAMX damage score, application pre-emergence [2] | ECHCG damage score, application pre-emergence [3] | SETFA damage score, application pre-emergence [4] | ABUTH damage score, application pre-emergence [5] | AMARE damage score, application pre-emergence [6] | ALOMY herbicidal damage score [7] | ZEAMX herbicidal damage score [8] | AMARE herbicidal damage score [9] | ECHCG herbicidal damage score [10] | SETFA herbicidal damage score [11] | ABUTH herbicidal damage score [12] |
| --- | --- | --- | --- | --- | --- | --- | --- | --- | --- | --- | --- | --- |
| 1-(6-chloropyrimidin-4-yl)-2-hydroxy-4-methoxy-3-methyl-2H-pyrrol-5-one [CI2] | 2 | 1 | 4 | 4 | 1 |  |  |  |  |  |  |  |
| 4-chloro-2-hydroxy-1-[5-iodo-4-(trifluoromethyl)-2-pyridyl]-3-methyl-2H-pyrrol-5-one [AF76] | 3 | 1 | 4 | 5 | 4 | 5 | 5 | 1 | 5 | 5 | 5 | 5 |
| 4-chloro-2-hydroxy-3-methyl-1-[4-(trifluoromethyl)-5-vinyl-2-pyridyl]-2H-pyrrol-5-one [AF18] | 4 | 2 | 5 | 4 | 5 | 5 | 5 | 2 | 5 | 5 | 5 | 5 |
| CC1=C(Cl)C(=O)N(c2cc(C(F)(F)F)c(Br)cn2)C1O (centres unmarked) [AF57, 1-[5-bromo-4-(trifluoromethyl)-2-pyridyl]-4-chloro-2-hydroxy-3-methyl-2H-pyrrol-5-one] | 3 | 0 | 0 | 0 | 1 |  | 5 | 3 | 5 | 5 | 5 | 5 |
| CC1=C(Cl)C(=O)N(c2cc(C(F)(F)F)c(-c3ccc(Cl)cc3)cn2)C1O (centres unmarked) [AF90] |  | 0 | 0 | 3 | 0 | 2 |  |  | 5 |  | 5 | 4 |
| COC1=C(C)C(O)N(c2cc(Cl)c(C(=O)NC(C)(C)C)cn2)C1=O (centres unmarked) [AI18] | 4 |  | 5 | 5 |  | 5 | 5 | 4 | 5 | 5 | 5 | 5 |
| COC(=O)c1cnc(N2C(=O)C(OC)=C(C)C2O)cc1Cl (centres unmarked) [AI21] | 0 |  | 0 | 0 |  | 5 | 1 | 1 | 5 | 3 | 4 | 5 |
| COC1=C(C)C(O)N(c2cc(C(C)C)c(C(=O)NC(C)(C)C)cn2)C1=O (centres unmarked) [AI30] |  |  |  |  | 5 | 5 |  |  | 5 | 5 | 5 | 5 |
| COC1=C(C)C(O)N(c2cc(C)c(C(=O)NC(C)(C)C)cn2)C1=O (centres unmarked) [AI33] | 4 |  | 4 | 5 |  | 5 | 5 | 4 | 5 | 5 | 5 | 5 |
| CC1=C(Cl)C(=O)N(c2cc(C(C)C)c(Cl)nn2)C1O (centres unmarked) [BF15] | 4 | 2 | 5 | 5 | 4 | 3 | 5 | 3 | 5 |  |  | 5 |
| COC1=C(C)C(O)N(c2cc(C(C)C)c(Cl)nn2)C1=O (centres unmarked) [BI28] | 4 | 3 | 5 | 5 | 4 | 4 | 5 | 3 | 5 |  |  | 5 |
| COC1=C(C)C(O)N(c2cc(C(C)(C)C)c(Cl)nn2)C1=O (centres unmarked) [BI32] | 4 | 4 | 5 | 5 | 4 | 3 | 5 | 4 | 5 |  |  | 5 |
| CC1=C(Cl)C(=O)N(c2cc(Cl)ncn2)C1O (centres unmarked) [CF1] | 3 | 2 | 4 | 0 | 1 | 5 | 4 | 1 |  | 4 | 1 | 0 |
| COC1=C(C)C(O)N(c2cc(C(C)(C)C)ncn2)C1=O (centres unmarked) [CI1] | 4 | 4 | 4 | 5 | 5 | 5 |  |  |  |  |  |  |
| COC1=C(C)C(O)N(c2cc(NC(C)C)ncn2)C1=O (centres unmarked) [CI4, N2-hydroxy-1-[6-(isopropylamino)pyrimidin-4-yl]-4-methoxy-3-methyl-2H-pyrrol-5-one] | 0 | 0 | 0 | 0 | 0 | 0 |  |  |  |  |  |  |
| COC1=C(C)C(O)N(c2cc(C(C)(C)C#N)ncn2)C1=O (centres unmarked) [CI6] | 3 | 3 | 5 | 5 | 5 | 5 |  |  |  |  |  |  |
| COC1=C(C)C(O)N(c2cc(C(C)(C)F)ncn2)C1=O (centres unmarked) [CI7] | 3 | 1 | 4 | 5 | 5 | 5 |  |  |  |  |  |  |
| COC1=C(C)C(O)N(c2cc(C(C)(F)F)ncn2)C1=O (centres unmarked) [CI8] | 3 | 2 | 4 | 5 | 5 | 5 |  |  |  |  |  |  |
| COC1=C(C)C(O)N(c2cc(N(C)C)ncn2)C1=O (centres unmarked) [CI9] | 1 | 0 | 1 | 1 | 2 | 3 |  |  |  |  |  |  |
